We go through 8 molecules from PubChem BioAssay (NCI).

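Tested at 5 concentrations; 48 h exposure; 96-well plates; endpoints linearly interpolated, else capped at highest concentration. The concentration for 50% growth inhibition is given as GI50. The concentration for full growth arrest is given as TGI.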

Among the test systems are 786-0 renal; A549 NSCLC; DU-145 prostate; HL-60(TB) leukemia; HOP-62 NSCLC; MDA-MB-231 breast; NCI-H226 lung; NCI-H460 lung; SF-295 CNS; KM12 colon.
What all share (test): NCI anticancer screen, dose series, 48 h

As for `O=C(O)c1ccc(CI)cc1`, the TGI is 10.8 µM in the experiment with 786-0 renal; 33.8 µM with A549 NSCLC; 35.9 µM in the experiment with DU-145 prostate; 42.4 µM with HL-60(TB) leukemia; 36.1 µM with HOP-62 NSCLC; 37.6 µM with MDA-MB-231 breast. The TGI was found to be 44.1 µM in the experiment with NCI-H226 lung, 31.7 µM in the experiment with NCI-H460 lung and 21.6 µM in the experiment on SF-295 CNS.

`COC(=O)c1cc2c3ccccc3n3c(=O)c4cc5ccc(N(S(=O)(=O)c6ccc(C)cc6)S(=O)(=O)c6ccc(C)cc6)cc5nc4c(n1)c23`: the GI50 in the experiment with 786-0 renal was 13.6 µM; in the experiment on A549 NSCLC, above 100 µM; in the experiment with DU-145 prostate, above 100 µM; in the experiment on HL-60(TB) leukemia it was above 100 µM; in the experiment on HOP-62 NSCLC, 16.1 µM; in the experiment with KM12 colon, above 100 µM. Also, the GI50 in the experiment on MDA-MB-231 breast is 21.4 µM; in the experiment with NCI-H226 lung, 33.8 µM; with NCI-H460 lung it was above 100 µM; in the experiment with SF-295 CNS it was 20.5 µM. In addition, the TGI in the experiment on 786-0 renal was 43.9 µM; with A549 NSCLC, above 100 µM; in the experiment on DU-145 prostate, above 100 µM; in the experiment with HL-60(TB) leukemia, above 100 µM; with HOP-62 NSCLC, 45 µM; with KM12 colon, above 100 µM. In addition, the TGI in the experiment on MDA-MB-231 breast, with NCI-H226 lung, with NCI-H460 lung and in the experiment with SF-295 CNS was above 100 µM each time.

With `C=CCn1c(C)nc2ccc(Nc3nc(Nc4ccc(F)cc4)nc4ccccc34)cc21`, the GI50 in the experiment with 786-0 renal was 7.44 µM; in the experiment with A549 NSCLC, 4.18 µM; in the experiment with DU-145 prostate, 8.63 µM; in the experiment with HL-60(TB) leukemia, 4.95 µM; in the experiment with KM12 colon, 4.07 µM; with MDA-MB-231 breast, 2.37 µM. Moreover, the GI50 with NCI-H460 lung is 3.11 µM; in the experiment with SF-295 CNS, 6.08 µM. For the same molecule, the TGI with 786-0 renal worked out at 23.8 µM; in the experiment with A549 NSCLC, 22.2 µM; in the experiment on DU-145 prostate, 22.8 µM; in the experiment with HL-60(TB) leukemia it was 23.3 µM; in the experiment on KM12 colon, 16.4 µM; with MDA-MB-231 breast, 8.24 µM. In addition, the TGI in the experiment with NCI-H460 lung was determined as 14.5 µM; in the experiment on SF-295 CNS it was 20.3 µM.

For `CS(=O)(=O)CCNCc1cc(-c2cc3c(Nc4ccc(OCc5cccc(F)c5)c(Cl)c4)ncnc3s2)cs1`, the GI50 is 6.44 µM with 786-0 renal; 10.8 µM with A549 NSCLC; 13.3 µM in the experiment on DU-145 prostate; 4.18 µM in the experiment on HL-60(TB) leukemia; above 16.8 µM in the experiment with HOP-62 NSCLC; 6.55 µM in the experiment on KM12 colon. The GI50 with MDA-MB-231 breast was 6.15 µM; with NCI-H226 lung, 15.1 µM; with NCI-H460 lung it was 9.64 µM; in the experiment with SF-295 CNS it was 9.89 µM. Moreover, the TGI with 786-0 renal was above 18.7 µM; in the experiment on A549 NSCLC it was above 25 µM; in the experiment with DU-145 prostate, above 25 µM; with HL-60(TB) leukemia, above 25 µM; in the experiment with HOP-62 NSCLC, above 25 µM; in the experiment with KM12 colon, above 25 µM. Moreover, the TGI is 19.9 µM with MDA-MB-231 breast, above 25 µM in the experiment on NCI-H226 lung, above 25 µM in the experiment on NCI-H460 lung and above 25 µM with SF-295 CNS.

For `CCC(O)c1ccc(Br)cc1NC(=O)c1cccc(Cl)c1` (stereo not drawn), the GI50 is 33.1 µM with 786-0 renal; 19.5 µM in the experiment with A549 NSCLC; 34.5 µM in the experiment on DU-145 prostate; 22.3 µM in the experiment on HL-60(TB) leukemia; 20 µM in the experiment on HOP-62 NSCLC; 13 µM in the experiment with KM12 colon. The GI50 is 18.8 µM in the experiment with MDA-MB-231 breast, 21.5 µM in the experiment with NCI-H226 lung, 21.9 µM in the experiment with NCI-H460 lung and 15 µM in the experiment with SF-295 CNS. The TGI with 786-0 renal was above 100 µM; in the experiment on A549 NSCLC, above 100 µM; with DU-145 prostate, above 100 µM; in the experiment on HL-60(TB) leukemia, 60.1 µM; with HOP-62 NSCLC, 44.6 µM; in the experiment with KM12 colon, 29.6 µM. Moreover, the TGI is above 100 µM in the experiment on MDA-MB-231 breast, 64.6 µM in the experiment on NCI-H226 lung, 78.5 µM in the experiment on NCI-H460 lung and 35.1 µM with SF-295 CNS.

For `CCOC(=O)C(Cc1c[nH]c2c(N(CCO)CCO)cccc12)(NC(C)=O)C(=O)OCC`, the GI50 in the experiment with 786-0 renal was above 1000 µM; with A549 NSCLC it was above 1000 µM; with DU-145 prostate, 499 µM; in the experiment with HL-60(TB) leukemia, 318 µM; in the experiment with HOP-62 NSCLC, above 1000 µM; in the experiment with KM12 colon, 302 µM. Further, the GI50 with MDA-MB-231 breast is 692 µM; in the experiment with NCI-H226 lung, 439 µM; with NCI-H460 lung, 642 µM; in the experiment on SF-295 CNS it was 148 µM. Moreover, the TGI was above 1000 µM in the experiment on 786-0 renal; above 1000 µM in the experiment on A549 NSCLC; above 1000 µM with DU-145 prostate; above 1000 µM in the experiment on HL-60(TB) leukemia; above 1000 µM in the experiment with HOP-62 NSCLC; 978 µM in the experiment on KM12 colon. Further, the TGI in the experiment with MDA-MB-231 breast, with NCI-H226 lung, with NCI-H460 lung and with SF-295 CNS was above 1000 µM in each case.

For `CCNc1cc(-c2cccc(OC(F)(F)F)c2)nc2ccc(N3CCCC3)cc12`, the GI50 in the experiment on 786-0 renal is 1.56 µM; in the experiment on A549 NSCLC, 2.68 µM; in the experiment on DU-145 prostate, 2.2 µM; in the experiment with HL-60(TB) leukemia, 1.97 µM; in the experiment on HOP-62 NSCLC, 1.62 µM; with KM12 colon, 1.97 µM. For the same molecule, the GI50 is 1.58 µM in the experiment on MDA-MB-231 breast, 1.67 µM in the experiment on NCI-H226 lung, 1.75 µM in the experiment on NCI-H460 lung and 1.82 µM with SF-295 CNS. The TGI in the experiment with 786-0 renal is 3.48 µM; in the experiment with A549 NSCLC, 10.5 µM; in the experiment on DU-145 prostate, 5.88 µM; in the experiment on HL-60(TB) leukemia it was 4.27 µM; in the experiment with HOP-62 NSCLC, 3.16 µM; with KM12 colon, 4.77 µM. Further, the TGI amounted to 3.16 µM in the experiment with MDA-MB-231 breast, 4.53 µM with NCI-H226 lung, 4.1 µM in the experiment on NCI-H460 lung and 3.6 µM in the experiment on SF-295 CNS.

For the molecule `O=c1c2cc(F)ccc2sc2c(N3CCNCC3)nc3ccc(F)cc3c12`, the GI50 in the experiment with 786-0 renal was 1.49 µM; with DU-145 prostate it was 1.68 µM; in the experiment on HL-60(TB) leukemia, 2.05 µM; with HOP-62 NSCLC, 1.82 µM; in the experiment on KM12 colon it was 1.79 µM; with MDA-MB-231 breast it was 1.42 µM. Moreover, the GI50 with NCI-H226 lung was 1.53 µM; in the experiment on NCI-H460 lung, 1.59 µM; in the experiment with SF-295 CNS, 1.78 µM. The TGI in the experiment on 786-0 renal is 2.98 µM; with DU-145 prostate, 3.09 µM; with HL-60(TB) leukemia, 3.94 µM; with HOP-62 NSCLC, 3.85 µM; with KM12 colon it was 3.34 µM; in the experiment on MDA-MB-231 breast, 2.79 µM. The TGI was determined as 3.03 µM in the experiment with NCI-H226 lung, 3.12 µM in the experiment with NCI-H460 lung and 3.22 µM in the experiment with SF-295 CNS.
